The text below walks through data of article PMC7439263 (ACS Omega, 2020).

The term IC50 denotes the midpoint of a concentration-inhibition curve.

One assay deals with α-glucosidase. As to conditions: cited from earlier work.
The test system of another assay is α-amylase. As to conditions: cited from earlier work.
The conditions of assay [1]: in vivo ref 49; cited from earlier work.
Assay [2] concerns α-Glucosidase (from Saccharomyces cerevisiae). Put plainly: Assay for α-glucosidase inhibitory activity. As to conditions: for IC50: read-out: IC50 α-glucosidase, mean ± SD (n = 3); for α-glucosidase inhibitory activity compared to acarbose (in words): Figure 3, 150 μM, p < 0.05; for total activity α-glucosidase: total activity = amount (mg/kg)/IC50 (mg/mL). The format is biochemical.

The target in assay [3] is T1, α-amylase (from the porcine pancreas) (Sus scrofa, UniProt P00690).
T1 sequence (P00690 16-511): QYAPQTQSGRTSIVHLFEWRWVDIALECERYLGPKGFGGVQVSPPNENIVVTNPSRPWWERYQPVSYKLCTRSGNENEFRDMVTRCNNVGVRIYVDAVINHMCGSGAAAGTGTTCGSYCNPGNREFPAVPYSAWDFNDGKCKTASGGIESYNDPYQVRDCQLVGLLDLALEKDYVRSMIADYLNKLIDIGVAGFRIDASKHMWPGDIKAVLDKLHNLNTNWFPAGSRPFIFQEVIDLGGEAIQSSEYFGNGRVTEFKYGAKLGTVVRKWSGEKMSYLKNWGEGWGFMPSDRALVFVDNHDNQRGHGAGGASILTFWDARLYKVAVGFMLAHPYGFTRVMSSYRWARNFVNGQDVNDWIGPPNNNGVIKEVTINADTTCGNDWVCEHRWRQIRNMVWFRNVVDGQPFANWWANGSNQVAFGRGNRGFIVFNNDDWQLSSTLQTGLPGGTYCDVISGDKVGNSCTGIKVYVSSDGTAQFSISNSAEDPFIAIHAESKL
Put plainly: biochemical. As to conditions: for IC50: IC50 α-amylase, mean ± SD (n = 3). The format is biochemical.

A further assay deals with glycogen phosphorylase. As to conditions: cited from earlier work.
Assay [4] deals with α-Glucosidase (from Saccharomyces cerevisiae). Put plainly: Inhibitory kinetics analysis against the α-glucosidase enzyme. As to conditions: Lineweaver–Burk plot analysis, sucrose substrate. The class given is biochemical.
For assay [5] the following is noted: STZ-induced diabetic rats ref 46; cited from earlier work.
The next assay has as its system glycogenic enzymes. As to conditions: rats ref 47; cited from earlier work.

For the compound `C[C@H]1[C@H](C)CC[C@]2(C(=O)O)CC[C@]3(C)C(=CC[C@@H]4[C@@]5(C)C[C@@H](O)[C@H](O)C(C)(C)[C@@H]5CC[C@]43C)[C@H]12` [corosoric acid], the “α-glucosidase inhibitory activity in vitro (in words)” value with α-glucosidase is reported as “strong inhibitory activity”. Further, the “α-amylase inhibitory activity in vitro (in words)” value in the assay on α-amylase is “strong inhibitory activity”. Also, the “post-challenge plasma glucose levels” value in assay [1] is “significant effect on lowering post-challenge plasma glucose levels”.
With `OCCc1ccc(O)c(O)c1` [hydroxytyrosol 7, hydroxytyrosol], the “α-glucosidase inhibitory activity at highest tested concentration” value in assay [2] (1000 μM) is recorded as “less than 10%”. Moreover, the IC50 was over 1000 µM in assay [2] and over 500 µM in assay [3]. Further, the inhibition at 500 µM in assay [3] (read-out: α-amylase inhibitory activity at highest tested concentration) was under 10%.
As for `CC1(C)CC[C@]2(C(=O)O)CC[C@]3(C)C(=CC[C@@H]4[C@@]5(C)C[C@@H](O)[C@H](O)C(C)(C)[C@@H]5CC[C@]43C)[C@@H]2C1` [maslinic acid 2, maslinic acid], in [2], the “α-glucosidase inhibitory activity compared to acarbose (in words)” value is “higher than that of acarbose”, the IC50 was 34.5 ± 1.4 µM and the “total activity α-glucosidase” value amounted to 11042.9. In assay [3], the “α-amylase inhibitory activity compared to acarbose (in words)” value is reported as “acarbose had higher activity than them” and 67 ± 5.4 µM corresponded to half-maximal inhibition (IC50). For the same compound, the “total activity α-amylase” value in assay [3] (total activity = amount (mg/kg)/IC50 (mg/mL)) is 5678.2. Also, the “blood glucose levels / glycogen phosphorylase inhibition” value in the assay with glycogen phosphorylase is “reduce blood glucose levels by inhibiting glycogen phosphorylase”.
With `CC1(C)CC[C@]2(C(=O)O)CC[C@]3(C)C(=CC[C@@H]4[C@@]5(C)CC[C@H](O)C(C)(C)[C@@H]5CC[C@]43C)[C@@H]2C1` [oleanolic acid 1, oleanolic acid], in assay [2], the “α-glucosidase inhibitory activity compared to acarbose (in words)” value is recorded as “higher than that of acarbose”. Also, in assay [2], the “total activity α-glucosidase” value was 5359.5. In addition, the “inhibition type against α-glucosidase” value in assay [4] is on record as “partial mixed inhibitor”; in [4] (listed as 1) it was “mixed-type”. For the same compound, the blood glucose levels result in [5] is “lower blood glucose levels”. For the same compound, in the assay on glycogenic enzymes, the “glycogen levels and glycogenic enzymes” value is “reduced glycogen levels and glycogenic enzymes”.
